The results in this text go back to PubChem BioAssay (NCI).

The structures appear in SMILES notation.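 Grown in 96-well plates, cells were treated for 48 hours with each compound at five concentrations. Insufficient inhibition: endpoint recorded as highest concentration tested. TGI marks complete inhibition of growth.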

The subject of the first experiment is HOP-92 NSCLC. The experiment is described as follows: NCI tumour cell line growth inhibition, 48 h.
As to `S=C(N/N=C/c1ccccn1)N1CCCCC1`, the TGI was greater than 100 µM.
Consider `Nn1c(C23CC4CC(CC(C4)C2)C3)n[nH]c1=S`, for which the TGI is greater than 100 µM.
The same measure, in the same setting: then `Cc1cn(C2CC(OC(=O)c3ccc(Cl)cc3)C(COC(=O)c3ccc(Cl)cc3)O2)c(=O)[nH]c1=O` (stereo not given), with greater than 100 µM.

For the next experiment, the system named is HS 578T breast. In words: NCI tumour cell line growth inhibition, 48 h.
Regarding `S=C(N/N=C/c1ccccn1)N1CCCCC1`, the TGI was determined as 45.1 µM.
For the compound `CC(=O)OCC1OC(N2C(c3ccccc3)=CC(c3cccs3)C(C#N)=C2S)C(OC(C)=O)C(OC(C)=O)C1OC(C)=O` (stereo not given), the TGI was greater than 100 µM.
With `Nn1c(C23CC4CC(CC(C4)C2)C3)n[nH]c1=S`, the TGI was greater than 100 µM.
On the same count and under the same terms, then `Cc1cn(C2CC(OC(=O)c3ccc(Cl)cc3)C(COC(=O)c3ccc(Cl)cc3)O2)c(=O)[nH]c1=O` (stereo not given), with greater than 100 µM.

The test system of the next experiment is HT29 colon. The experiment is described as follows: NCI tumour cell line growth inhibition, 48 h.
As to `S=C(N/N=C/c1ccccn1)N1CCCCC1`, the TGI was greater than 100 µM.
Same read-out and setting: then `Nn1c(C23CC4CC(CC(C4)C2)C3)n[nH]c1=S`, with greater than 100 µM; and `Cc1cn(C2CC(OC(=O)c3ccc(Cl)cc3)C(COC(=O)c3ccc(Cl)cc3)O2)c(=O)[nH]c1=O` (stereo not given), with greater than 100 µM.

The subject of a further experiment is IGROV1 ovarian. In words: NCI tumour cell line growth inhibition, 48 h.
Take `CC(=O)OCC1OC(N2C(c3ccccc3)=CC(c3cccs3)C(C#N)=C2S)C(OC(C)=O)C(OC(C)=O)C1OC(C)=O` (stereo not given): the TGI is greater than 100 µM.
The same measure, in the same setting: under `Nn1c(C23CC4CC(CC(C4)C2)C3)n[nH]c1=S` stands greater than 100 µM; under `Cc1cn(C2CC(OC(=O)c3ccc(Cl)cc3)C(COC(=O)c3ccc(Cl)cc3)O2)c(=O)[nH]c1=O` (stereo not given), greater than 100 µM.

Another experiment has as its system K-562 leukemia. The experiment is described as follows: NCI tumour cell line growth inhibition, 48 h.
`S=C(N/N=C/c1ccccn1)N1CCCCC1`: the TGI is 45.6 µM.
Still for that read-out and setting: under `Nn1c(C23CC4CC(CC(C4)C2)C3)n[nH]c1=S` stands greater than 100 µM; under `Cc1cn(C2CC(OC(=O)c3ccc(Cl)cc3)C(COC(=O)c3ccc(Cl)cc3)O2)c(=O)[nH]c1=O` (stereo not given), greater than 100 µM.

For another experiment, the system named is KM12 colon. The experiment is described as follows: NCI tumour cell line growth inhibition, 48 h.
On to `S=C(N/N=C/c1ccccn1)N1CCCCC1`, for which the TGI is greater than 100 µM.
As to `CC(=O)OCC1OC(N2C(c3ccccc3)=CC(c3cccs3)C(C#N)=C2S)C(OC(C)=O)C(OC(C)=O)C1OC(C)=O` (stereo not given), the TGI was greater than 100 µM.
In turn, `Nn1c(C23CC4CC(CC(C4)C2)C3)n[nH]c1=S` registered a TGI greater than 100 µM.
`Cc1cn(C2CC(OC(=O)c3ccc(Cl)cc3)C(COC(=O)c3ccc(Cl)cc3)O2)c(=O)[nH]c1=O` (stereo not given): the TGI is greater than 100 µM.

In a further experiment the test system is LOX IMVI melanoma. In words: NCI tumour cell line growth inhibition, 48 h.
The compound `S=C(N/N=C/c1ccccn1)N1CCCCC1` displayed a TGI of 20.8 µM.
Same read-out and setting: under `CC(=O)OCC1OC(N2C(c3ccccc3)=CC(c3cccs3)C(C#N)=C2S)C(OC(C)=O)C(OC(C)=O)C1OC(C)=O` (stereo not given) stands greater than 100 µM.
For the compound `Nn1c(C23CC4CC(CC(C4)C2)C3)n[nH]c1=S`, the TGI was greater than 100 µM.
In turn, `Cc1cn(C2CC(OC(=O)c3ccc(Cl)cc3)C(COC(=O)c3ccc(Cl)cc3)O2)c(=O)[nH]c1=O` (stereo not given) showed a TGI greater than 100 µM.

In a further experiment the test system is M14 melanoma. In words: NCI tumour cell line growth inhibition, 48 h.
For the compound `S=C(N/N=C/c1ccccn1)N1CCCCC1`, the TGI is 1.36 µM.
Still for that read-out and setting: then `CC(=O)OCC1OC(N2C(c3ccccc3)=CC(c3cccs3)C(C#N)=C2S)C(OC(C)=O)C(OC(C)=O)C1OC(C)=O` (stereo not given), with greater than 100 µM; and `Nn1c(C23CC4CC(CC(C4)C2)C3)n[nH]c1=S`, with greater than 100 µM; and `Cc1cn(C2CC(OC(=O)c3ccc(Cl)cc3)C(COC(=O)c3ccc(Cl)cc3)O2)c(=O)[nH]c1=O` (stereo not given), with greater than 100 µM.

The next experiment relates to MALME-3M melanoma. In words: NCI tumour cell line growth inhibition, 48 h.
With `S=C(N/N=C/c1ccccn1)N1CCCCC1`, the TGI was determined as 7.57 µM.
On the same count and under the same terms, then `Nn1c(C23CC4CC(CC(C4)C2)C3)n[nH]c1=S`, with greater than 100 µM.
On to `Cc1cn(C2CC(OC(=O)c3ccc(Cl)cc3)C(COC(=O)c3ccc(Cl)cc3)O2)c(=O)[nH]c1=O` (stereo not given), for which the TGI is greater than 100 µM.

The next experiment has as its system MCF7 breast. The experiment is described as follows: NCI tumour cell line growth inhibition, 48 h.
For `S=C(N/N=C/c1ccccn1)N1CCCCC1`, the TGI came out at 50 µM.
Still for that read-out and setting: under `CC(=O)OCC1OC(N2C(c3ccccc3)=CC(c3cccs3)C(C#N)=C2S)C(OC(C)=O)C(OC(C)=O)C1OC(C)=O` (stereo not given) stands greater than 100 µM; under `Cc1cn(C2CC(OC(=O)c3ccc(Cl)cc3)C(COC(=O)c3ccc(Cl)cc3)O2)c(=O)[nH]c1=O` (stereo not given), greater than 100 µM.

For the next experiment, the system named is MDA-MB-231 breast. In words: NCI tumour cell line growth inhibition, 48 h.
The compound `CC(=O)OCC1OC(N2C(c3ccccc3)=CC(c3cccs3)C(C#N)=C2S)C(OC(C)=O)C(OC(C)=O)C1OC(C)=O` (stereo not given) yielded a TGI greater than 100 µM.
Same read-out and setting: under `Nn1c(C23CC4CC(CC(C4)C2)C3)n[nH]c1=S` stands greater than 100 µM.

A further experiment relates to MDA-MB-435. In words: NCI tumour cell line growth inhibition, 48 h.
Consider `S=C(N/N=C/c1ccccn1)N1CCCCC1`, for which the TGI was greater than 100 µM.
`Nn1c(C23CC4CC(CC(C4)C2)C3)n[nH]c1=S` returned a TGI greater than 100 µM.
Still for that read-out and setting: under `Cc1cn(C2CC(OC(=O)c3ccc(Cl)cc3)C(COC(=O)c3ccc(Cl)cc3)O2)c(=O)[nH]c1=O` (stereo not given) stands greater than 100 µM.

Another experiment concerns MDA-N. In words: NCI tumour cell line growth inhibition, 48 h.
On to `S=C(N/N=C/c1ccccn1)N1CCCCC1`, for which the TGI was greater than 100 µM.
Same read-out and setting: then `CC(=O)OCC1OC(N2C(c3ccccc3)=CC(c3cccs3)C(C#N)=C2S)C(OC(C)=O)C(OC(C)=O)C1OC(C)=O` (stereo not given), with greater than 100 µM; and `Nn1c(C23CC4CC(CC(C4)C2)C3)n[nH]c1=S`, with greater than 100 µM; and `Cc1cn(C2CC(OC(=O)c3ccc(Cl)cc3)C(COC(=O)c3ccc(Cl)cc3)O2)c(=O)[nH]c1=O` (stereo not given), with greater than 100 µM.

The subject of another experiment is MOLT-4 leukemia. In words: NCI tumour cell line growth inhibition, 48 h.
`CC(=O)OCC1OC(N2C(c3ccccc3)=CC(c3cccs3)C(C#N)=C2S)C(OC(C)=O)C(OC(C)=O)C1OC(C)=O` (stereo not given) came in with a TGI greater than 100 µM.
In turn, `Nn1c(C23CC4CC(CC(C4)C2)C3)n[nH]c1=S` showed a TGI greater than 100 µM.
On the same count and under the same terms, under `Cc1cn(C2CC(OC(=O)c3ccc(Cl)cc3)C(COC(=O)c3ccc(Cl)cc3)O2)c(=O)[nH]c1=O` (stereo not given) stands greater than 100 µM.

The test system of a further experiment is NCI-H226 lung. In words: NCI tumour cell line growth inhibition, 48 h.
`S=C(N/N=C/c1ccccn1)N1CCCCC1` yielded a TGI of 6.97 µM.
Still for that read-out and setting: under `Nn1c(C23CC4CC(CC(C4)C2)C3)n[nH]c1=S` stands greater than 100 µM; under `Cc1cn(C2CC(OC(=O)c3ccc(Cl)cc3)C(COC(=O)c3ccc(Cl)cc3)O2)c(=O)[nH]c1=O` (stereo not given), greater than 100 µM.

In a further experiment the test system is NCI-H23 lung. In words: NCI tumour cell line growth inhibition, 48 h.
`S=C(N/N=C/c1ccccn1)N1CCCCC1` came in with a TGI greater than 45.7 µM.
